The values below come from patent publication US20240165196A1, “Beta-Lactamase Inhibitors” (VIB VZW, priority 2021, published 2024).

The target in one assay is T1, TEM-1 (Escherichia coli, UniProt P62593).
T1 construct: DNA TEM (870 bp) or SHV (894 bp) were each sub-cloned into a PUC57 vector cloning site NdeI/XhoI; His-tag (N); TEV cleavage site (N); made in house; host or cells: E. coli BL21 (DE3)
Kind of assay: thermal denaturation with right-angle/static light scattering (aggregation) in presence of beta-lactamase inhibitors. The assay is classed as biochemical, E. coli. The settings on record: TEM-1, dose titration of inhibitor.

In a further assay the test system is E. coli UZ_TEM104. Kind of assay: FACS analysis with Propidium Iodide and pFTAA. The assay is classed as cell-based. The following applies: 400 μg/mL penicillin G only, 4 h. Here is the method:
(§1) FIGS. 3A-3P. […] Three replicates are shown for each condition. […] A single representative image is shown. […] Three replicates are shown for each condition. (FIG. 3E) [Left] […] [Middle] […] [Right] […] A single representative image is shown. […] A single representative image is shown. […] A single representative image is shown. […] A single representative blot is shown. […] 106 cells were analysed for the plot.
First, we tested the assay using a mixture of live and heat inactivated (FIG. 3L) or just live bacteria (FIG. 3M), showing that heat inactivated, but not live bacteria are stained with PI, and neither are stained with pFTAA.
Bacterial cells in the cleaned suspensions were stained with both propidium iodide (PI) and FITC peptide to evaluate the killing rate and peptide uptake in a two-dimensional analysis. […] Treated bacteria washed with PBS buffer two times. One microliter of PI (Invitrogen) was added to the bacteria and incubated for 5 min. The bacteria were used by FACS tubes for 40000 events. To correlate the activity of the peptides with cell death, the fluorescence intensity was measured in two channels using the Gallios™ Flow Cytometer (Beckman Coulter, USA), PI: excitation 536 nm and emission 617 nm, FITC: excitation 490 nm and emission 525 nm. Heated bacteria at 90° C. for 10 min were used as PI-positive control.
Background: A flow cytometer gives signals particle by particle.

For assay [1], the system named is E. coli strain UZ_TEM104. The assay is classed as cell-based.
For assay [2], the system named is E. coli strain UZ_TEM104. The assay is classed as cell-based. The following applies: peptide alone. An excerpt: In order to generate a synthetic amyloid peptide capable of inactivating the TEM-1 beta-lactamase enzyme by capitalizing on its aggregation propensity, we applied a previously developed design pattern for synthetic aggregating sequences. This involves a tandem repeat of the APR, each instance flanked by charged amino acids for solubility and separated by a short peptide linker^19,20,23 (FIG. 2G). Previous work has shown that good bacterial uptake can be achieved using one positively charged arginine residue on the N-terminal side of each APR in the tandem and two arginine residues on the C-terminal side. This has the additional benefit of reducing the self-aggregation of the peptides and increasing their solubility prior to target engagement. As before, we employed a single Pro residue as a linker between the APRs and focused on an APR length of seven, extending shorter APRs to this length by incorporating flanking amino acids unless they were obvious aggregation breakers (Arg, Lys, Asp, Glu or Pro, see Table 1). We obtained these peptides from solid phase synthesis, followed by HPLC purification to a purity judged by reverse phase chromatography of at least 90% (Genscript).
Determination of MIC values using the broth microdilution in the 96-well plate (BD Biosciences, Belgium) according to the EUCAST guideline, which was performed in 96-well polystyrene flat bottom microtiter plates (BD Biosciences). Briefly, a single colony was inoculated into 5 mL Difco™ Mueller Hinton Broth (BD Biosciences Ref 275730) and grown to the end-exponential growth phase in a shaking incubator at 37° C. Cultures were subsequently diluted to an MacFarland (0.5 optical density) then the culture was diluted to reach 10^6 CFU/mL in fresh MHB medium. 50 μl of different concentration of peptides ranging from 128 to 2 μg/mL were serially diluted to the sterile 96-well plate in MHB. 50 μL of the diluted bacteria in MHB were pipetted into 96-well plates to reach the final volume of 100 μL. The bacteria grown with the maximum concentration of carrier and medium were considered as positive and negative controls, respectively. The plates were statically incubated overnight at 37° C. to allow bacterial growth. OD was measured at 590 nm a multipurpose ultraviolet-visible plate reader, and the absorbance of the growth bacteria was measured using absorbance reader. Bacterial growth was also visually inspected and agreed well with the OD reading.

The test system of the next assay is E. coli SHV-11. Nature of the assay: checkerboard assay (FICI), peptide versus penicillin G. The assay is classed as cell-based. The following applies: strain with SHV-11; FICI below 0.5 = synergy. An excerpt:
(§2) FIGS. 2A-2M. (FIG. 2A) TEM mutations and their effects on stability (total energy) as predicted by FoldX. […] Dashed line indicates a total energy difference of 0.5 kcal/mol, the FoldX cut-off above which mutations are considered to be destabilizing. (FIG. 2B) Barplot mapping mutations in (FIG. 2A) to the TEM sequence and indicating occurrence. […] The bar heights correspond to the number of times a mutation occurs across different TEM variants (right-hand y-axis). The color coding is identical to that in (FIG. 2A). Red line indicates the TANGO scores (indicated on the left-hand y-axis), with peaks corresponding to APRs. (FIG. 2C) Mapping of mutations in (FIG. 2A) and (FIG. 2B) to the TEM structure (pdb 1xpb). Protein surface is shown in gray, color coding of mutations is identical to (FIG. 2A) and (FIG. 2B). (FIGS. 2D, 2E, and 2F) Temperature-dependent evolution of the Right-Angle Light Scattering (RALS) intensity during a temperature ramp, similar as in FIG. 1F for key mutants of TEM1, namely TEM-10 (FIG. 2D), TEM-30 (FIG. 2E) and TEM-155 (FIG. 2F). Experiments were shown in triplicate, single repeat is shown. (FIG. 2G) Schematic representation of the structure of the peptides. APR—Aggregation Prone Region, R—Arginine. (FIG. 2H) Ribbon representation of the superposition of the crystal structures of TEM (green, pdb id 1bt5) and SHV (blue, pdb id 1shv). The catalytic site of the beta-lactamase activity is indicated and location of APR3 is shown in red. (FIG. 2I) TANGO aggregation score and alignment of APR3 in TEM and SHV. (FIG. 2J) Fractional Inhibitory Concentration Index determination of 5 peptides versus penicillin on E. coli TEM-104. […] FICI values below 0.5 indicate synergy. Values between 0.5 and 1.0 indicate additivity and values greater than 1 indicate indifference between the combined substances. (FIG. 2K) Same as J for E. coli SHV-11. (FIG. 2L) Same as J for a kanamycin resistant E. coli strain. (FIG. 2M) FICI values for the TEM3.2 peptide on a range of E. coli strains.
(§3) Moreover, the core sequence of peptide TEM3.0 also occurs in the structurally related SHV β-lactamase ([…]). Although the C-terminal extension residues H and N have been replaced with physicochemically similar R and Q, respectively (FIG. 2H). […] To quantify the synergy between these four peptides and penicillin G, we performed a so-called checkerboard assay, which allows to compare the activity of two test compounds co-incubated (here peptide and a beta-lactam antibiotic), to their individual activities in isolation. The result from the assay is quantified as the Fractional Inhibitory Concentration Index (FICI), and it is generally accepted that values below 0.5 indicate synergistic effects between the compounds. As a control, we generated a peptide using the same design, but based on a previously identified APR from the β-galactosidase enzyme (BGAL)^16 from E. coli (APR=SVIIWSL, peptide sequence=[…]) that has a MIC value>100 μg/mL on E. coli strain UZ_TEM104. We evaluated the synergy of the peptides with penicillin G in clinical E. coli isolates carrying the TEM ([…]) or SHV enzymes ([…]). […] As a further control, we also performed a checkerboard assay with an E. coli strain that was resistant to the aminoglycoside kanamycin and observed no synergy between this unrelated antibiotic and our peptides (FIG. 2L), in line with the notion that we are inhibiting a beta-lactamase but not the aminoglycoside degrading enzyme. […] The list of strains included some that harbored only TEM or SHV, but others contained additional Ambler Class A (CTX-M or […]) or Class B (VIM and NDM) beta-lactamases. […] In contrast, the presence of the NDM-type […], that does have a high affinity for Ampicillin and that is completely distinct in sequence and structure from TEM and SHV, seemed to completely prevent the effect of the peptide on the beta-lactam sensitivity of the strains in which it occurred (see also further). […]

The subject of the next assay is E. coli TEM-104. Described as above. The settings on record: strain with TEM; FICI below 0.5 = synergy. The assay is classed as cell-based.
Excerpt: as §2, §3

Assay [3] has as its system TEM beta-lactamase in E. coli UZ_TEM104. Kind of assay: western blot of inclusion body (IB) fraction for TEM. The assay is classed as cell-based. The settings on record: 12 μM peptide in PBS, 120 min. Here is the method: as §1
(§4) Moreover, we confirmed the presence of the protein in the correct band using mass spectrometry proteomics. We repeated this with a strain expressing SHV-154, blotting with a polyclonal rabbit antibody raised against the recombinant SHV enzyme described above (FIG. 3K).
(§5) The overnight culture of bacteria was centrifuged for 30 min at 4,000×g and cells were washed with physiological water (NaCl 0.9%). Bacterial cells were treated by peptide at the appropriate concentration for at least 2 h at 37 C. The bacterial pellets were washed with 10 mL buffer A (50 mM HEPES, pH 7.5, 300 mM NaCl, 5 mM β-mercaptoethanol, 1.0 mM EDTA) and centrifuged at 4° C. for 30 min at 4,000×g. The supernatant was discarded and 20 mL of buffer B (buffer A plus 1 tablet of the protease and phosphatase Inhibitor Cocktail (ab201119, Abcam, UK) was added to the bacterial pellet. In order to break the cells, a High-Pressure Homogenizer (Glen Creston Ltd) with the pressure set to 20,000-25,000 psi was used on ice, and in addition, the suspensions were sonicated (Branson Digital sonifier 50/60 Hz) on ice with alternating 2 min cycle (15 pulses at 50% power with 30 s pauses on ice, until completing 2 min total sonication time). The lysed cells were centrifuged at 4° C. for 30 min at 11,000×g. The precipitated fraction was afterward re-suspended with 10 mL buffer D (buffer A plus 0.8% (V/V) Triton X-100, 0.1% sodium deoxycholate) and the suspension was sonicated to ensure the pellet is completely dissolved. This step was repeated three times. Centrifugation was performed at 4° C. for 30 min at 11,000×g. Finally, to solubilize IBs, the pellet was suspended in 500 ul of buffer F (50 mM HEPES, pH 7.5, 8.0 M urea) of precipitated fraction.
On the technique in general: A western blot detects proteins with antibodies after separation by electrophoresis.

Assay [4] concerns SHV beta-lactamase in strain expressing SHV-154. Kind of assay: western blot of inclusion body (IB) fraction for SHV. The assay is classed as cell-based, E. coli. The following applies: 12 μM peptide in PBS, 120 min. On the procedure: as §1, §4, §5
[5] abbreviates: in presence of additive at 50 μg/mL.

Read-outs that look alike come from different tables or passages of the source.

T1 sequence (P62593 24-286 limits assumed): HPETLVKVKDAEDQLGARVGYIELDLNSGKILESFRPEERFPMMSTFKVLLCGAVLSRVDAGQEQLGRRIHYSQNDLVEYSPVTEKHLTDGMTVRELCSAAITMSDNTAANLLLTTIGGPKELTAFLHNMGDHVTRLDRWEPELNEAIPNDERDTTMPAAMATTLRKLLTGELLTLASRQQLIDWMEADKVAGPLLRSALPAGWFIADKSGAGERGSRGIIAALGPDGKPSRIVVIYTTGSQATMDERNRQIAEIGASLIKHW

For the molecule `NC(=O)[C@@H]1CC[C@@H]2CN1C(=O)N2OS(=O)(=O)O` [avibactam], the “aggregation of the enzyme (static light scattering), dose-response” value (from here on “aggregation of the enzyme”) at TEM-1 is “reduce the aggregation of the enzyme in a dose-responsive manner”.

In the case of `O=C(O)[C@H]1/C(=C/CO)O[C@@H]2CC(=O)N21` [clavulanate], the “aggregation of the enzyme” value on TEM-1 is recorded as “reduce the aggregation of the enzyme in a dose-responsive manner”.

Turning to `CC1(C)S[C@@H]2[C@H](NC(=O)Cc3ccccc3)C(=O)N2[C@H]1C(=O)O` [penicillin G, Benzylpenicillin sodium], the “change in PI (cell death) and pFTAA (aggregation) channels” value in the assay on E. coli UZ_TEM104 is recorded as “no major change in either channel”. The molecule further returned an MIC penicillin against E. coli strain UZ_TEM104 [1] (penicillin alone, buffer, additive 0 μg/mL) of 1600 µg/mL.

Consider `O=C(O)C[C@@H]1CC[C@H](NC(=O)Cc2cccs2)B(O)O1` [vaborbactam], for which the “aggregation of the enzyme” value at TEM-1 is given as “reduce the aggregation of the enzyme in a dose-responsive manner”.

With Ac-RAGWFIARRPRAGWFIARR-NH2 [TEM5.0], in the assay on E. coli strain UZ_TEM104 [2], the MIC peptide was 100 µg/mL. Moreover, the MIC penicillin with E. coli strain UZ_TEM104 [1] (setting [5]) turned out to be 1600 µg/mL.

For Ac-RGIIAALGRRPRGIIAALGRR-NH2 [TEM6.0], the MIC peptide in the assay with E. coli strain UZ_TEM104 [2] was more than 100 µg/mL. The MIC penicillin with E. coli strain UZ_TEM104 [1] (setting [5]) was 1600 µg/mL.

In the assay on E. coli strain UZ_TEM104 [2], Ac-RIVVIYTTRRPRIVVIYTTRR-NH2 [TEM7.0] came in with an MIC peptide of more than 100 µg/mL. In the assay with E. coli strain UZ_TEM104 [1] (setting [5]), the MIC penicillin is 1600 µg/mL.

In the assay on E. coli strain UZ_TEM104 [2], Ac-RLLLTTIGRRPRLLLTTIGRR-NH2 [TEM2.0] registered an MIC peptide of more than 100 µg/mL. The MIC penicillin with E. coli strain UZ_TEM104 [1] (setting [5]) was 800 µg/mL.

In the case of Ac-RLLTLASRRPRLLTLASRR-NH2 [TEM4.0], the MIC peptide in the assay on E. coli strain UZ_TEM104 [2] worked out at 100 µg/mL. Moreover, the MIC penicillin with E. coli strain UZ_TEM104 [1] (setting [5]) turned out to be 1600 µg/mL.

As to “RLTAFLRQRRPRLTAFLHNRR (non-natural molecule) [TEM3.3]”, the “synergy with penicillin G (FICI)” value in the assay on E. coli SHV-11 and in the assay on E. coli TEM-104 was “synergy” throughout. Besides, the “enrichment of the TEM protein in inclusion bodies (western blot)” value in assay [3] is “clear enrichment of the TEM protein in IBs”. For the same molecule, in assay [4], the “accumulation of the SHV enzyme in inclusion bodies (western blot)” value was “accumulates in IBs”.

On to “RLTAFLRQRRPRLTAFLRQRR (non-natural molecule) [TEM3.1]”, for which the “synergy with penicillin G (FICI)” value with E. coli SHV-11 is recorded as “clear synergy”. The “enrichment of the TEM protein in inclusion bodies (western blot)” value in assay [3] is recorded as “not”. Also, the “accumulation of the SHV enzyme in inclusion bodies (western blot)” value in assay [4] is “accumulates in IBs”.
